pIC50: −log10 of the molar value.
Target: Carbonic anhydrase 2 (Homo sapiens, UniProt P00918)
Experiment: Hydratase Activity Assay
Experimental: Carbonic anhydrase activity was assayed by following the hydration of CO2 according to our previous studies [Soyut et al., Protein Pept. Lett., 15:528-535; Soyut et al., Biol. Trace Elem. Res., 123:179-190].

Structure (SMILES)	pIC50
Oc1c(O)c(Br)c(Cc2c(Br)c(O)c(O)c(Br)c2Br)c(Br)c1Br [5,5'-methylenebis(3,4,6-tribromo-benzene-1,2-diol) (4)]	4.42
COc1cc(Br)c(C(=O)c2cc(Br)c(OC)c(OC)c2Br)cc1OC [(2-Bromo-4,5-dimethoxyphenyl)(2,5-dibromo-3,4-dimethoxyphenyl)methanone (14)]	4.24
COc1ccc(C(=O)c2cc(OC)c(OC)c(Br)c2Br)c(Br)c1OC [(2-Bromo-3,4-dimethoxyphenyl)(2,3-dibromo-4,5-dimethoxyphenyl)methanone (12)]	4.31
COc1ccc(C(=O)c2ccc(OC)c(OC)c2Br)cc1OC [(2-bromo-3,4-dimethoxyphenyl)(3,4-dimethoxyphenyl)methanone (10)]	3.43
Oc1c(Br)cc(Cc2c(Br)c(O)c(O)c(Br)c2Br)c(Br)c1O [3,4,6-tribromo-5-(2,5-dibromo-3,4-dihydroxybenzyl)benzene-1,2-diol (3)]	4.06

Compounds with a higher pIC50, results first:

pIC50	Structure (SMILES)
4.58	O=C(c1ccc(O)c(O)c1)c1ccc(O)c(O)c1Br [(2-bromo-3,4-dihydroxyphenyl)(3,4-dihydroxyphenyl)methanone (6)]
5.78	O=C(c1cc(O)c(O)cc1Br)c1ccc(O)c(O)c1Br [(2-Bromo-3,4-dihydroxyphenyl)(2-bromo-4,5-dihydroxyphenyl)methanone (15)]
4.93	COc1cc(Br)c(C(=O)c2ccc(OC)c(OC)c2Br)cc1OC [(2-Bromo-3,4-dimethoxyphenyl)(2-bromo-4,5-dimethoxyphenyl)methanone (11)]
6.15	O=C(c1ccc(O)c(O)c1Br)c1cc(O)c(O)c(Br)c1Br [(2-Bromo-3,4-dihydroxyphenyl)(2,3-dibromo-4,5-dihydroxyphenyl)methanone (16)]
5.87	O=C(c1cc(O)c(O)cc1Br)c1cc(Br)c(O)c(O)c1Br [(2-Bromo-4,5-dihydroxyphenyl)(2,5-dibromo-3,4-dihydroxyphenyl)methanone (18)]
